The source of these data is patent US20240109915A1, “NOVEL ACC INHIBITORS” (Pfizer Inc., priority 2022, published 2024).

The target of data set [1] is recombinant human ACC1 (rhACC1) (Homo sapiens (Human), UniProt Q13085). Briefly: Transcreener ADP detection FP assay, direct inhibition of rhACC1. The class given is biochemical. To be noted: Geomean IC50, n ≥ 2 unless * then n = 1; 50 μM ATP, 30 μM acetyl-CoA. The procedure:
The direct inhibition of ACC1 for the compounds of the present invention was determined using preparations of recombinant human ACC1 (rhACC1) (SEQ ID NO. 1)
Two liters of SF9 cells, infected with recombinant baculovirus containing full length human ACC1 cDNA, were suspended in ice-cold lysis buffer (25 mM Tris, pH 7.5; 150 mM NaCl; 10% glycerol; 5 mM imidazole (EMD Bioscience; Gibbstown, NJ); 2 mM TCEP (BioVectra; Charlottetown, Canada); Benzonase nuclease (10000 U/100 g cell paste; Novagen; Madison, WI); EDTA-free protease inhibitor cocktail (1 tab/50 ml; Roche Diagnostics; Mannheim, Germany). Cells were lysed by 3 cycles of freeze-thaw and centrifuged at 40,000×g for 40 minutes (4° C.). Supernatant was directly loaded onto a HisTrap FF crude column (GE Healthcare; Piscataway, NJ) and eluted with an imidazole gradient up to 0.5 M over 20 column volumes (CV). ACC1-containing fractions were pooled and diluted 1:5 with 25 mM Tris, pH 7.5, 2 mM TCEP, 10% glycerol and direct loaded onto a CaptoQ (GE Healthcare) column and eluted with an NaCl gradient up to 1 M over 20 CV's. Phosphate groups were removed from purified ACC1 by incubation with lambda phosphatase (100 U/10 μM target protein; New England Biolabs; Beverly, MA) for 14 hours at 4° C.; okadaic acid was added (1 μM final concentration; Roche Diagnostics) to inhibit the phosphatase. Purified ACC1 was exchanged into 25 mM Tris, pH 7.5, 2 mM TCEP, 10% glycerol, 0.5 M NaCl by 6 hour dialysis at 4° C. Aliquots were prepared and frozen at −80° C.
Measurement of rhACC1 Inhibition rhACC1 was assayed in a Corning #3820 (Corning, Tewksbury, MA) 384-well plate using the Transcreener ADP detection FP assay kit (Bellbrook Labs, Madison, Wisconsin) using the manufacturer's recommended conditions for a 50 μM ATP reaction. The final conditions for the assay were 50 mM HEPES, pH 7.2, 10 mM MgCl2, 7.5 mM tripotassium citrate, 2 mM DTT, 0.1 mg/mL BSA, 30 μM acetyl-CoA, 50 μM ATP, and 10 mM KHCO3. Typically, a […] was run for 60 min at room temp, and 10 μl of Transcreener stop and detect buffer was added and the combination incubated at room temp for an overnight (18 hours). The data was acquired on an Envision Fluorescence reader (PerkinElmer) using a 620 excitation Cy5 FP general dual mirror, 620 excitation Cy5 FP filter, 688 emission (S) and a 688 (P) emission filter.

For another data set, the system named is SZ95 sebocytes. Kind of data set: Radiometric measurement of de novo lipogenesis in cultured human sebocytes. The class given is cell-based. The conditions noted are these: Geomean IC50, n>2 unless * then n=1, 14C acetate incorporation into lipids (DNL). The procedure: SZ95 sebocytes were grown in Human Sebocyte Growth Medium (HSGM) containing Sebomed® basal medium (Sigma-Aldrich, F8205) supplemented with 10% heat-inactivated fetal bovine serum (Gibco, 10100-147), 1% penicillin/streptomycin (Gibco, 15070-063), 1 mM calcium chloride (Fisher, BP9742-10X5) and 5 ng/mL recombinant human epidermal growth factor (Gibco, PHG0311). At 90% confluence, cells were washed with PBS and then detached with 0.05% Trypsin-EDTA (Gibco, 25300054). Prior to starting the assay, cells were centrifuged and resuspended in HSGM containing 5% charcoal-stripped serum (Life Technologies, 12676-029) instead of 10% heat-inactivated fetal bovine serum. Cells were added to 24-well plates at a density of 0.25×10^6 cells/well and incubated overnight at 37° C. to allow the cells to adhere to the culture plate. Cells were then treated with a dose response of compound (30, 1, 0.03, 0.006, 0.0009, 0.0002, and 0.00003 μM) with each concentration tested in duplicate. Briefly, compounds were dissolved in DMSO stocks and diluted 1:1000 into HSGM with charcoal-stripped media. The vehicle control wells were treated with 0.1% DMSO. After a 1-hour preincubation with compound or vehicle at 37° C., 0.25 μCi ^14C sodium acetate (American Radiolabeled Chemicals: ARC, 0173A) was added to each well. Plates were incubated for an additional two hours at 37° C. At the end of the incubation period, cells were removed from incubator, placed on ice, and then washed twice with ice-cold PBS to remove free ^14C-sodium acetate. Plates were sealed and stored at −20° C. until analysis. To induce lysis, 125 μL of mammalian protein extraction reagent (MPER; Fisher, 78501) was added to each well. Plates were shaken for 1 hour at room temperature and lysates transferred to individual 2 mL polypropylene tubes. Wells were then washed with 175 μL PBS, which was added to lysates. A chloroform:methanol solution (1:1 v/v, 450 μL) was added to each tube. All tubes were vortexed for 10 seconds and centrifuged at 14,000×g for 5 minutes at room temperature to separate the aqueous and organic phases. A 25 μL aliquot was removed from the bottom organic layer of each sample and added to 6 mL Optiphase Supermix scintillation fluid (PerkinElmer, 1200-439). Counts of ^14C were assessed by scintillation counting. DNL (counts of ^14C incorporated into lipids) was expressed as a percentage for compound treated cells relative to the vehicle control. IC50 values were determined using a non-linear regression (four parameter with variable slope) in GraphPad Prism.

Data set [2] in a line: Metabolite profile in liver microsomes, hepatocytes, recombinant human P450 and UGT enzymes, and animal plasma. The class given is in vitro ADME, mouse, rat, rabbit, dog, monkey. To be noted: recombinant human cytochrome P450 and UGT enzymes, plasma from animals. The procedure: The metabolite profile of compound of Example 14 was evaluated in liver microsomes and hepatocytes (mouse, rat, rabbit, dog, monkey, and human), recombinant human cytochrome P450 enzymes, recombinant human UGT enzymes, and plasma from animals (mouse, rat, and dog).

As to `COc1cc(C(=O)N2CCC3(CC2)CC(=O)c2nc(C(C)(C)C)sc2C3)cc2c(C)nn(C)c12` [Example 13, 2-(tert-butyl)-1′-(7-methoxy-1,3-dimethyl-1H-indazole-5-carbonyl)-5H-spiro[benzo[d]thiazole-6,4′-piperidin]-4(7H)-one], the IC50 was 5.3 nM in data set [1] and 13.5 nM in the data set on SZ95 sebocytes.
In the case of `CCOc1cc(C(=O)N2CCC3(CC2)CC(=O)c2nc(C(C)(C)C)sc2C3)cc2c(C)nn(C)c12` [Example 14, 2-(tert-butyl)-1′-(7-ethoxy-1,3-dimethyl-1H-indazole-5-carbonyl)-5H-spiro[benzo[d]thiazole-6,4′-piperidin]-4(7H)-one], the results for the IC50 (in data set [1]; in the data set on SZ95 sebocytes) were 2.2 nM and 5.9 nM, respectively. Besides, the metabolite profile entry in data set [2] was “oxidation and glucuronidation”.
As for `CNc1cnc2c(C)cc(C(=O)N3CCC4(CC3)CC(=O)c3nc(C(C)(C)C)sc3C4)cc2c1` [Example 15, 2-(tert-butyl)-1′-(8-methyl-3-(methylamino)quinoline-6-carbonyl)-5H-spiro[benzo[d]thiazole-6,4′-piperidin]-4(7H)-one], the IC50 in data set [1] stood at 3.4 nM; with SZ95 sebocytes it was 12.9 nM.
In the case of `Cc1cc(C(=O)N2CCC3(CC2)CC(=O)c2nc(C(C)(C)C)sc2C3)cc2ccccc12` [Example 16, 2-(tert-butyl)-1′-(4-methyl-2-naphthoyl)-5H-spiro[benzo[d]thiazole-6,4′-piperidin]-4(7H)-one], the values for the half-inhibitory concentration (IC50) (in data set [1]; with SZ95 sebocytes) were 7.3 nM and 18.1 nM, respectively.
The corresponding values for `Cc1cc(C(=O)N2CCC3(CC2)CC(=O)c2nc(C(C)(C)C)sc2C3)cc2cc[nH]c12` [Example 17, 2-(tert-butyl)-1′-(7-methyl-1H-indole-5-carbonyl)-5H-spiro[benzo[d]thiazole-6,4′-piperidin]-4(7H)-one] are 9.6 nM and 15.6 nM.
With `COc1cnc2c(C)cc(C(=O)N3CCC4(CC3)CC(=O)c3nc(C(C)(C)C)sc3C4)cc2c1` [Example 19, 2-(tert-butyl)-1′-(3-methoxy-8-methylquinoline-6-carbonyl)-5H-spiro[benzo[d]thiazole-6,4′-piperidin]-4(7H)-one], the IC50 came out at 9.9 nM in data set [1] and 21.1 nM in the data set on SZ95 sebocytes.
On to `COc1cc(C(=O)N2CCC3(CC2)CC(=O)c2nc(C(C)(C)C)sc2C3)c2[nH]ncc2c1C` [Example 33, 2-(tert-butyl)-1′-(5-methoxy-4-methyl-1H-indazole-7-carbonyl)-5H-spiro[benzo[d]thiazole-6,4′-piperidin]-4(7H)-one], for which the IC50 in data set [1] is 5.1 nM; in the data set on SZ95 sebocytes it was 38.1 nM.
For `CNc1ccc2c(C)cc(C(=O)N3CCC4(CC3)CC(=O)c3nc(C(C)(C)C)sc3C4)cc2n1` [Example 38, 2-(tert-butyl)-1′-(5-methyl-2-(methylamino)quinoline-7-carbonyl)-5H-spiro[benzo[d]thiazole-6,4′-piperidin]-4(7H)-one], the values for the IC50 (in data set [1]; in the data set on SZ95 sebocytes) were 4.9 nM and 14.2 nM, respectively.
On to `Cc1cc(C(=O)N2CCC3(CC2)CC(=O)c2nc(C(C)(C)C)sc2C3)cc2c(Cl)c[nH]c12` [Example 42, 2-(tert-butyl)-1′-(3-chloro-7-methyl-1H-indole-5-carbonyl)-5H-spiro[benzo[d]thiazole-6,4′-piperidin]-4(7H)-one], for which the IC50 came out at 3.1 nM in data set [1] and 15.9 nM with SZ95 sebocytes.
In the case of `COc1cc(C(=O)N2CCC3(CC2)CC(=O)c2nc(C(C)(C)C)sc2C3)cc2[nH]ccc12` [Example 61], the IC50 is 4.4 nM in data set [1] and 30.8 nM in the data set with SZ95 sebocytes.
In the case of `Cn1ccc2c(Cl)cc(C(=O)N3CCC4(CC3)CC(=O)c3nc(C(C)(C)C)sc3C4)cc21` [Example 79], the IC50 stood at 4.1 nM in data set [1] and 16.7 nM in the data set on SZ95 sebocytes.
Take `COc1cc(C(=O)N2CCC3(CC2)CC(=O)c2nc(C(C)(C)C)sc2C3)cc(OC)c1C` [Example 81]: the IC50 was 11.7 nM in data set [1] and 47.2 nM in the data set with SZ95 sebocytes.
The corresponding values for `CNc1nc2c(C)cccc2cc1C(=O)N1CCC2(CC1)CC(=O)c1nc(C(C)(C)C)sc1C2` [Example 97] are 1.8 nM and 16.2 nM.
For `COc1cc(C(=O)N2CCC3(CC2)CC(=O)c2nc(C(C)(C)C)sc2C3)cc2c(C3CC3)nccc12` [Example 99], the IC50 in data set [1] was 3.9 nM; with SZ95 sebocytes, 10 nM.
Regarding `COc1cc(C(=O)N2CCC3(CC2)CC(=O)c2nc(C(C)(C)C)sc2C3)cc2c(OC)nccc12` [Example 100], the IC50 in data set [1] stood at 3.1 nM.
For the compound `COc1cnc2c(OC)cc(C(=O)N3CCC4(CC3)CC(=O)c3nc(C(C)(C)C)sc3C4)cc2c1` [Example 101], in data set [1], the concentration for half-maximal inhibition (IC50) was found to be 10.1 nM.
Still for that read-out and setting: to `COc1cc(C(=O)N2CCC3(CC2)CC(=O)c2nc(C(C)(C)C)sc2C3)cc2c1c(C)nn2C` [Example 103] belongs 5.4 nM; to `COc1cc(C(=O)N2CCC3(CC2)CC(=O)c2nc(C(C)(C)C)sc2C3)cc2cc(C3CC3)cnc12` [Example 104], 6.7 nM.
In the case of `CCc1cnc2c(OC)cc(C(=O)N3CCC4(CC3)CC(=O)c3nc(C(C)(C)C)sc3C4)cc2c1` [Example 105], in data set [1], the IC50 amounted to 33.6 nM.
For `COc1cc(C(=O)N2CCC3(CC2)CC(=O)c2nc(C(C)(C)C)sc2C3)cc2cc[nH]c12` [Example 106], the IC50 in data set [1] is 12.9 nM.
As for `CCc1n[nH]c2c(OC)cc(C(=O)N3CCC4(CC3)CC(=O)c3nc(C(C)(C)C)sc3C4)cc12` [Example 107], in data set [1], the IC50 stood at 12.3 nM.
Consider `CCc1nn(C)c2c(OC)cc(C(=O)N3CCC4(CC3)CC(=O)c3nc(C(C)(C)C)sc3C4)cc12` [Example 108], for which, in data set [1], the IC50 was found to be 5.6 nM.
